Experimental data published in PubChem BioAssay (NCI).
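Assay format: 96-well plates, 48-hour exposure. Definition used: TGI = concentration required for complete inhibition of growth.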

Experiments:
Assay in all cases: inhibition of tumour cell growth, NCI panel, 48 h
[1] = test system: 786-0 renal
[2] = test system: A498 renal
[3] = test system: A549 NSCLC
[4] = test system: ACHN renal
[5] = test system: CAKI-1 renal
[6] = test system: CCRF-CEM leukemia
[7] = test system: COLO 205 colon
[8] = test system: DU-145 prostate
[9] = test system: EKVX NSCLC
[10] = test system: HCC-2998 colon
[11] = test system: HCT-116 colon
[12] = test system: HCT-15 colon
[13] = test system: HL-60(TB) leukemia
[14] = test system: HOP-62 NSCLC
[15] = test system: HOP-92 NSCLC
[16] = test system: HS 578T breast
[17] = test system: HT29 colon
[18] = test system: IGROV1 ovarian
[19] = test system: K-562 leukemia
[20] = test system: KM12 colon
[21] = test system: LOX IMVI melanoma
[22] = test system: M14 melanoma
[23] = test system: MALME-3M melanoma
[24] = test system: MCF7 breast
[25] = test system: MDA-MB-231 breast
[26] = test system: MDA-MB-435
[27] = test system: MDA-N
[28] = test system: NCI-H23 lung
[29] = test system: NCI-H460 lung
[30] = test system: NCI-H522 lung
[31] = test system: NCI/ADR-RES ovarian
[32] = test system: OVCAR-3 ovarian
[33] = test system: OVCAR-4 ovarian
[34] = test system: OVCAR-5 ovarian
[35] = test system: OVCAR-8 ovarian
[36] = test system: PC-3 prostate
[37] = test system: RXF 393 renal
[38] = test system: SF-268 CNS
[39] = test system: SF-295 CNS
[40] = test system: SF-539 CNS
[41] = test system: SK-MEL-2 melanoma
[42] = test system: SK-MEL-28 melanoma
[43] = test system: SK-MEL-5 melanoma
[44] = test system: SN12C renal
[45] = test system: SNB-19 CNS
[46] = test system: SNB-75 CNS
[47] = test system: SW-620 colon
[48] = test system: T-47D breast
[49] = test system: TK-10 renal
[50] = test system: U251 CNS
[51] = test system: UACC-257 melanoma
[52] = test system: UACC-62 melanoma
[53] = test system: UO-31 renal
[54] = test system: MOLT-4 leukemia
[55] = test system: NCI-H226 lung
[56] = test system: RPMI-8226 leukemia
[57] = test system: SK-OV-3 ovarian
[58] = test system: SR leukemia

Compound: COc1ccc(NC(=O)CC(=O)N2N=C(C)C(N=Nc3ccc(C(=O)O)cc3)C2=O)cc1 (configuration not stated)
- TGI [1]: > 100 µM
- TGI [2]: > 100 µM
- TGI [3]: > 100 µM
- TGI [4]: > 100 µM
- TGI [5]: > 100 µM
- TGI [6]: > 100 µM
- TGI [7]: > 100 µM
- TGI [8]: > 100 µM
- TGI [9]: > 100 µM
- TGI [10]: > 100 µM
- TGI [11]: > 100 µM
- TGI [12]: > 100 µM
- TGI [13]: > 100 µM
- TGI [14]: > 100 µM
- TGI [15]: > 100 µM
- TGI [16]: > 100 µM
- TGI [17]: > 100 µM
- TGI [18]: > 100 µM
- TGI [19]: > 100 µM
- TGI [20]: > 100 µM
- TGI [21]: > 100 µM
- TGI [22]: > 100 µM
- TGI [23]: > 100 µM
- TGI [24]: > 100 µM
- TGI [25]: > 100 µM
- TGI [26]: > 100 µM
- TGI [27]: > 100 µM
- TGI [28]: > 100 µM
- TGI [29]: > 100 µM
- TGI [30]: > 100 µM
- TGI [31]: > 100 µM
- TGI [32]: > 100 µM
- TGI [33]: > 100 µM
- TGI [34]: > 100 µM
- TGI [35]: > 100 µM
- TGI [36]: > 100 µM
- TGI [37]: > 100 µM
- TGI [38]: > 100 µM
- TGI [39]: > 100 µM
- TGI [40]: > 100 µM
- TGI [41]: > 100 µM
- TGI [42]: > 100 µM
- TGI [43]: > 100 µM
- TGI [44]: > 100 µM
- TGI [45]: > 100 µM
- TGI [46]: > 100 µM
- TGI [47]: > 100 µM
- TGI [48]: > 100 µM
- TGI [49]: > 100 µM
- TGI [50]: > 100 µM
- TGI [51]: > 100 µM
- TGI [52]: > 100 µM
- TGI [53]: > 100 µM

Compound: CC(C)(C)C(=O)CC(=O)C(F)(F)C(F)(F)C(F)(F)F.[Ag]
- TGI [1]: 33 µM
- TGI [3]: > 100 µM
- TGI [4]: 28.7 µM
- TGI [5]: 27.8 µM
- TGI [6]: 43.8 µM
- TGI [7]: 57.9 µM
- TGI [8]: > 100 µM
- TGI [9]: 55.3 µM
- TGI [11]: 44.1 µM
- TGI [12]: 31.3 µM
- TGI [13]: 40.8 µM
- TGI [14]: 50.9 µM
- TGI [15]: 40.2 µM
- TGI [16]: 63.8 µM
- TGI [17]: 36 µM
- TGI [18]: 26.5 µM
- TGI [19]: 65.8 µM
- TGI [20]: 50.8 µM
- TGI [21]: 14.5 µM
- TGI [22]: 31.1 µM
- TGI [23]: 45.4 µM
- TGI [25]: 30.1 µM
- TGI [26]: 33.5 µM
- TGI [27]: 29 µM
- TGI [54]: 44.8 µM
- TGI [55]: 60.2 µM
- TGI [28]: 33.1 µM
- TGI [29]: 46.9 µM
- TGI [31]: 48.6 µM
- TGI [32]: 27.7 µM
- TGI [33]: 30.5 µM
- TGI [34]: > 100 µM
- TGI [35]: 49.4 µM
- TGI [36]: 26.8 µM
- TGI [56]: 44.5 µM
- TGI [37]: 32.4 µM
- TGI [38]: 40.3 µM
- TGI [39]: 39.2 µM
- TGI [40]: 57.6 µM
- TGI [41]: 33.6 µM
- TGI [42]: 28.3 µM
- TGI [43]: 21.3 µM
- TGI [57]: 44.5 µM
- TGI [44]: 27.6 µM
- TGI [45]: 43.9 µM
- TGI [46]: 34.6 µM
- TGI [58]: 22.4 µM
- TGI [47]: 47 µM
- TGI [48]: 55.2 µM
- TGI [49]: 32.1 µM
- TGI [50]: 52.8 µM
- TGI [51]: 30.1 µM
- TGI [52]: 32 µM
- TGI [53]: 60.4 µM

Compound: N[C@@H](Cc1ccc2oc3cc(=O)c4ccccc4c-3nc2c1)C(=O)O
- TGI [1]: > 100 µM
- TGI [2]: > 100 µM
- TGI [3]: > 100 µM
- TGI [4]: > 100 µM
- TGI [5]: > 100 µM
- TGI [6]: > 100 µM
- TGI [7]: 38.9 µM
- TGI [8]: 34.7 µM
- TGI [9]: > 100 µM
- TGI [11]: > 100 µM
- TGI [12]: > 100 µM
- TGI [13]: > 100 µM
- TGI [14]: 48.2 µM
- TGI [15]: > 100 µM
- TGI [16]: > 100 µM
- TGI [17]: 96.8 µM
- TGI [18]: > 100 µM
- TGI [19]: > 100 µM
- TGI [20]: > 100 µM
- TGI [21]: > 100 µM
- TGI [22]: 40.9 µM
- TGI [23]: 11.2 µM
- TGI [24]: 6.79 µM
- TGI [25]: > 100 µM
- TGI [26]: 31.7 µM
- TGI [27]: 38.2 µM
- TGI [54]: > 100 µM
- TGI [55]: > 100 µM
- TGI [28]: 51.3 µM
- TGI [29]: > 100 µM
- TGI [30]: > 100 µM
- TGI [31]: > 100 µM
- TGI [32]: > 100 µM
- TGI [33]: > 100 µM
- TGI [34]: > 100 µM
- TGI [35]: > 100 µM
- TGI [56]: > 100 µM
- TGI [37]: > 100 µM
- TGI [38]: > 100 µM
- TGI [39]: 64 µM
- TGI [40]: > 100 µM
- TGI [42]: > 100 µM
- TGI [43]: 24.1 µM
- TGI [57]: > 100 µM
- TGI [44]: > 100 µM
- TGI [45]: 77.6 µM
- TGI [46]: > 100 µM
- TGI [58]: 60.4 µM
- TGI [47]: > 100 µM
- TGI [48]: > 100 µM
- TGI [49]: > 100 µM
- TGI [50]: > 100 µM
- TGI [51]: 42.3 µM
- TGI [52]: 57.9 µM
- TGI [53]: > 100 µM
